US20110184178A1, “POLYMORPHS OF 5-(3-(ETHYLSULFONYL)PHENYL)-3,8-DIMETHYL-N-(1-METHYLPIPERIDIN-4-YL)-9H-PYRIDO[2,3-B]INDOLE-7-CARBOXAMIDE AND METHODS OF USE THEREFOR” (Takeda Pharmaceutical Company Limited, priority 2008, published 2011)
Counter-ions that a name gives are not always drawn.

How the values were obtained:
Type in all cases: physicochemical
[1] = Approximate solubility screen of Compound I in different solvents; conditions: for solubility: organic solvent or mixture, thermodynamic from solid
Experimental: A solubility screen of Compound I was evaluated in 20 different solvents chosen as MeCN, dioxane, acetone, MtBE, EtOH, EtOAc, IPAc, IPA, THF, 2-MeTHF, MEK, DMF, AcOH, MeOH, cyclohexane, heptane, DCM, toluene, NMP, and DMAc, to select appropriate primary and binary solvents for the polymorph screen. One to four mg of the Compound I was charged to 2-dram clear vials equipped with magnetic stir bars and solvent was added in 250-μL portions with heating to 55° C. until complete dissolution was observed or a maximum of 6 mL was added. […] Solvents and other reagents were of ACS or HPLC grade and were used as received.

[2] = Slurry experiments (form by XRPD after slurrying in a solvent); conditions: 2.0 mL
Experimental: 50 to 60 mg of Form A of Compound I was weighed out into 2 dram amber vials and the material was slurried in 2 mL of a solvent. The slurry experiments were carried out at either ambient temperature or at 40° C. Samples were obtained from slurries after one day, one week, and two weeks. Tables 15 and 16 detail the results of the slurry experiments.

[3] = Solubility study of Form A in de-ionized water and 20 mM phosphate buffer at pH 3.2 (HPLC, XRPD of solids); conditions: for solubility: thermodynamic from solid
Experimental: Solubility was determined for Form A of Compound I by suspending the material in de-ionized water and 20 mM phosphate buffer at pH 3.2 and ambient temperature. Approximately 40 mg of Form A of Compound I was charged to 2-dram amber vials equipped with magnetic stir bars, followed by the addition of DI water or phosphate buffer (2.0 mL) in one portion. The samples were allowed to equilibrate with stirring for 16 h, followed by centrifugation. An aliquot of the supernatant liquid was analyzed by HPLC, and the solids isolated by filtration and dried under vacuum at ambient temperature for analysis by XRPD. Samples were allowed to stir for an additional 6 days and concentration determined by HPLC.

[4] = Physical characterization of the polymorphs and salt (XRPD, DSC, TGA, 1H-NMR, KF, moisture sorption): stability assessment; conditions: solid form
Experimental: Described herein are Form A, Form B, Form C, Form D, Form E, Form F and Form G of Compound I. Various tests were performed in order to physically characterize the polymorphs of Compound I, including X-ray powder diffraction (XRPD), differential scanning calorimetry (DSC), thermogravimetric analysis (TGA), solution proton nuclear magnetic resonance (^1H-NMR), and moisture sorption and desorption analysis (M S/Des). Detailed experimental conditions for each of the analytical techniques are described in the Examples section. […] A summary of these experiments and the results are presented below and in Table 12.

[5] = Moisture-sorption analysis (gravimetric adsorption/desorption, 25° C.)
Experimental: Further, the material gained enough water to form the dihydrate in approximately 45 minutes at 30% RH during adsorption and lost enough water to form the anhydrate at 15% RH during desorption in less than 60 minutes. […] The sample was further allowed to equilibrate at ambient laboratory conditions overnight and reanalyzed by XRPD. […] The moisture sorption experiment of Form C of Compound I provides a curve similar to the Form A curve (FIG. 11). […] Further, the material gained enough water to form the dihydrate in less than 60 minutes at 30% RH during adsorption and lost enough water to form the anhydrate at 15% RH during desorption in approximately 80 minutes. […] Moisture-sorption experiments were carried out on all samples by first drying the sample at 0% RH and 25° C. until an equilibrium weight was reached or for a maximum of four hours. The sample was then subjected to an isothermal (25° C.) adsorption scan from 10 to 90% RH in steps of 10%. Samples were then allowed to equilibrate to an asymptotic weight at each point for a maximum of four hours. Following adsorption, a desorption scan from 85 to 0% RH (at 25° C.) was run in steps of −10% again allowing a maximum of four hours for equilibration to an asymptotic weight. Samples were dried for one hour at 80° C. and the resulting solids analyzed by XRPD.

[6] = Form A slurried in water, 40 ° C.
[7] = Form A slurried in water, Ambient

With CCS(=O)(=O)c1cccc(-c2cc(C(=O)NC3CCN(C)CC3)c(C)c3[nH]c4ncc(C)cc4c23)c1 [Compound I, 5-(3-(ethylsulfonyl)phenyl)-3,8-dimethyl-N-(1-methylpiperidin-4-yl)-9H-pyrido[2,3-b]indole-7-carboxamide] the Soluble ([1]; 2-Me—THF, 1.6 mg, 5.75 mL, heating to 55° C.) was “No”, the Soluble ([1]; AcOH, 2.1 mg in 0.75 mL, Temp RT) was “Yes” and the “Conc.” value ([1]; AcOH, Temp RT, 2.1 mg in 0.75 mL) was 2800 µg/mL. For the same molecule, the Soluble ([1]; DCM, 2.6 mg, 4.50 mL, heating to 55° C.) was “No”, the Soluble ([1]; DMA, 2.8 mg in 0.50 mL, Temp 55) was “Yes” and the “Conc.” value ([1]; DMA, Temp 55, 2.8 mg in 0.50 mL) was 5600 µg/mL. For the same molecule, the Soluble ([1]; DMF, 1.8 mg in 0.50 mL, Temp RT) was “Yes”, the “Conc.” value ([1]; DMF, Temp RT, 1.8 mg in 0.50 mL) was >3600 µg/mL and the Soluble ([1]; EtOAc, 2.2 mg, 5.75 mL, heating to 55° C.) was “No”. The Soluble ([1]; EtOH, 1.6 mg in 4.75 mL, Temp 55) was “Yes”, the “Conc.” value ([1]; EtOH, Temp 55, 1.6 mg in 4.75 mL) was 340 µg/mL and the Soluble ([1]; Heptane, 1.9 mg, 3.50 mL, heating to 55° C.) was “No”. For the same molecule, the Soluble ([1]; IPAC, 2.6 mg, 5.75 mL, heating to 55° C.) was “No”, the Soluble ([1]; MTBE, 1.3 mg, 5.75 mL, heating to 55° C.) was “No” and the Soluble ([1]; MeCN, 1.7 mg in 5.75 mL, Temp 55) was “Yes”. For the same molecule, the “Conc.” value ([1]; MeCN, Temp 55, 1.7 mg in 5.75 mL) was 300 µg/mL, the Soluble ([1]; MeOH, 1.7 mg in 2.00 mL, Temp 55) was “Yes” and the “Conc.” value ([1]; MeOH, Temp 55, 1.7 mg in 2.00 mL) was 850 µg/mL. The Soluble ([1]; NMP, 2.4 mg in 0.50 mL, Temp 55) was “Yes”, the “Conc.” value ([1]; NMP, Temp 55, 2.4 mg in 0.50 mL) was 4800 µg/mL and the Soluble ([1]; THF, 1.3 mg in 3.75 mL, Temp 55) was “Yes”. For the same molecule, the “Conc.” value ([1]; THF, Temp 55, 1.3 mg in 3.75 mL) was 350 µg/mL, the Soluble ([1]; Toluene, 1.8 mg, 3.50 mL, heating to 55° C.) was “No” and the Soluble ([1]; c-Hexane (cyclohexane), 1.8 mg, 3.50 mL, heating to 55° C.) was “No”. The “solubility (in words)” value ([1]; in MeCN, MTBe, EtOAc, IPAc, IPA, THF, MEK, heptane and water) was “Poor solubility”, the “solubility (in words)” value ([1]; in MeOH, DMF, DMA, NMP, CHCl3, AcOH and EtOH) was “Good solubility” and the “solubility (in words)” value ([1]; in polar solvents including MeCN, EtOH, THF, DMF, AcOH, MeOH, NMP, and DMAc) was “appreciable solubility”. For the same molecule, the solubility ([1]; Acetone, 1.8 mg, 5.75 mL, heating to 55° C.) was < 330 µg/mL, the solubility ([1]; Dioxane, 1.7 mg, 5.75 mL, heating to 55° C.) was < 330 µg/mL and the solubility ([1]; IPA, 1.2 mg, 5.75 mL, heating to 55° C.) was < 330 µg/mL. The solubility ([1]; MEK, 1.9 mg, 5.75 mL, heating to 55° C.) was < 330 µg/mL, the “XRPD Results Day 1*” value ([2]; Form A slurried in Acetone, Ambient) was “amorphous” and the “XRPD Results Day 1*” value ([2]; Form A slurried in MEK, Ambient) was “amorphous”. The “XRPD Results Day 1*” value ([2]; Form A slurried in THF, Ambient) was “amorphous”, the “XRPD Results Day 1*” value [2, 6] was “amorphous” and the “XRPD Results Week 1*” value [2, 6] was “amorphous”. The “XRPD Results Day 1*” value [2, 7] was “amorphous”, the “XRPD Results Week 1*” value [2, 7] was “amorphous” and the solubility ([3]; aqueous buffer, 20 mM phosphate buffer at pH 3.2) was < 100 µg/mL. The solubility ([3]; de-ionized water, water) was < 100 µg/mL.

With CCS(=O)(=O)c1cccc(-c2cc(C(=O)NC3CCN(C)CC3)c(C)c3[nH]c4ncc(C)cc4c23)c1 [Form B, 5-(3-(ethylsulfonyl)phenyl)-3,8-dimethyl-N-(1-methylpiperidin-4-yl)-9H-pyrido[2,3-b]indole-7-carboxamide] the “stability (based on the available characterization data)” value (from here on “stability”) [4] was “stable under ambient non-aqueous conditions”.

For CCS(=O)(=O)c1cccc(-c2cc(C(=O)NC3CCN(C)CC3)c(C)c3[nH]c4ncc(C)cc4c23)c1 [Form C, 5-(3-(ethylsulfonyl)phenyl)-3,8-dimethyl-N-(1-methylpiperidin-4-yl)-9H-pyrido[2,3-b]indole-7-carboxamide], the “stability” value [4] was “stable under ambient low humidity conditions”, the “time to lose enough water to form the anhydrate” value ([5]; at 15% RH during desorption) was “approximately 80 minutes” and the “time to gain enough water to form the dihydrate” value ([5]; at 30% RH during adsorption) was “less than 60 minutes”. For the same molecule, the “hydration state in the moisture sorption experiment” value ([5]; during both adsorption and desorption, 25° C.) was “convert to a stable dihydrate above 20% RH” and the “form conversion in aqueous media” value ([3]; during the solubility determination) was “converted to Form A”.

In the case of CCS(=O)(=O)c1cccc(-c2cc(C(=O)NC3CCN(C)CC3)c(C)c3[nH]c4ncc(C)cc4c23)c1 [Form D, 5-(3-(ethylsulfonyl)phenyl)-3,8-dimethyl-N-(1-methylpiperidin-4-yl)-9H-pyrido[2,3-b]indole-7-carboxamide], the “stability” value [4] is reported as “stable under ambient non-aqueous conditions”.

In the case of CCS(=O)(=O)c1cccc(-c2cc(C(=O)NC3CCN(C)CC3)c(C)c3[nH]c4ncc(C)cc4c23)c1 [Form E, 5-(3-(ethylsulfonyl)phenyl)-3,8-dimethyl-N-(1-methylpiperidin-4-yl)-9H-pyrido[2,3-b]indole-7-carboxamide], the “stability” value [4] is reported as “stable under ambient non-aqueous conditions”.

In the case of CCS(=O)(=O)c1cccc(-c2cc(C(=O)NC3CCN(C)CC3)c(C)c3[nH]c4ncc(C)cc4c23)c1 [HPF6 salt of Compound I], the “stability” value [4] is reported as “stable under ambient conditions”.
